Reference: patent publication US5214153A, “Actinoplanes transformation process anti-hypertensive compound and method of use thereas” (Merck & Co., Inc., priority 1992, dated 1993)

Target: T1, Angiotensin II (A II) receptor (Oryctolagus cuniculus, UniProt P34976)
T1 construct: 125I-Sar1Ile8-angiotensin II displacement
T1 sequence (P34976 1-359): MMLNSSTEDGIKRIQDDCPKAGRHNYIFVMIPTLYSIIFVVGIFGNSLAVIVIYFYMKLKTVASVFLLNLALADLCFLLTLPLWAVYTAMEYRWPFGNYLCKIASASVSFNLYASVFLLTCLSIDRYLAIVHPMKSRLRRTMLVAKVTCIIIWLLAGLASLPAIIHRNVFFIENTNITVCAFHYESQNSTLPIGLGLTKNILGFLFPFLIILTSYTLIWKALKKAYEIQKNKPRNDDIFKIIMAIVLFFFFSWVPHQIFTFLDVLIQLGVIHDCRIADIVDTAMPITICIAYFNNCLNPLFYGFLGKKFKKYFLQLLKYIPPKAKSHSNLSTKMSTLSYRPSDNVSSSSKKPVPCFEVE
Assay: Receptor Binding Assay Using Rabbit Aortae Membrane Preparation ("IC50" assay)
Method: This assay is also referred to herein as the "IC50 " assay.
Receptor Binding Assay Using Rabbit Aortae Membrane Preparation
Three frozen rabbit aortae (obtained from Pel-Freeze Biologicals) were suspended in 5 mM Tris-0.25M Sucrose, pH 7.4 buffer (50 mL) homogenized, and then centrifuged. The mixture was filtered through a cheesecloth and the supernatant was centrifuged for 30 minutes at 20,000 rpm at 4° C. The pellet thus obtained was resuspended in 30 mL of 50 mM Tris-5 mM MgCl2 buffer containing 0.2% Bovine Serum Albumin and 0.2 mg/mL Bacitratin and the suspension was used for 100 assay tubes. Samples tested for screening were done in duplicate. To the membrane preparation (0.25 mL) there was added ^125 I-Sar^1 Ile^8 -angiotensin II [obtained from New England Nuclear] (10 uL; 20,000 cpm) with or without the test sample and the mixture was incubated at 37° C. for 90 minutes. The mixture was then diluted with ice-cold 50 mM Tris-0.9% NaCl, pH 7.4 (4 mL) and filtered through a glass fiber filter (GF/B Whatman 2.4" diameter). The filter was soaked in scintillation cocktail (10 mL) and counted for radioactivity using Packard 2660 Tricarb liquid scintillation counter. […]

Structure (SMILES): CC(O)CCc1nc(Cl)c(CO)n1Cc1ccc(-c2ccccc2-c2nnn[nH]2)cc1 (stereo not shown) [compound (I)]
- A II antagonist activity by the IC50 assay: exhibits A II antagonist activity
